Measured values as given in PubChem BioAssay AID977624 (Broad Institute, 2014).
Inconclusive results are not listed. Activity calls are given as the source filed them.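 How the source made its calls: active means compound lowering the normal-ribosome reporter at least twice as much as the humanized-ribosome reporter, growth loss under a set limit; inconclusive means no clear call, values can overlap the other calls; inactive means the rest.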

Tested on: E. coli wild-type GFP strain growth, fluorescence, 24 h
Assay: wild-type E. coli growth inhibition versus h34 humanized strain – h34 mutant RFP, wild-type GFP, cherry-pick, dose response (AID 977624);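 further: wild-type GFP strain co-cultured with humanized h34 ribosome RFP strain in same well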

| SMILES | AC50 |
| --- | --- |
| Cc1ccc(S(=O)(=O)Nc2ccccc2CNc2cccc(C)n2)cc1 | > 100 µM (inactive) |
| CN1CCN(C(=O)C[C@H]2CC[C@@H]3[C@H](COC[C@@H](O)CN3C(=O)Nc3ccc(Cl)cc3)O2)CC1 | > 100 µM (inactive) |
| COc1cc(NC(=O)c2ccc([N+](=O)[O-])o2)ccc1NC(=O)c1ccco1 | > 100 µM (inactive) |
| O=C(O)c1ccccc1NC(=O)C(c1ccccc1)c1ccccc1 | > 100 µM (inactive) |
| Cc1ccc(NC(=O)C2CCN(S(=O)(=O)c3ccc4c(c3)NC(=O)CO4)CC2)cc1 | > 100 µM (inactive) |
| CCCN(CC1CC1)C(=O)CSc1ncnc2sccc12 | > 100 µM (inactive) |
| COc1ccccc1Cn1c(=S)[nH]c2ccc(F)cc2c1=O | > 100 µM (inactive) |
| CN(c1ccccc1)S(=O)(=O)c1cccc(C(=O)OCC(=O)NCc2ccco2)c1 | > 100 µM (inactive) |
| COc1ccc(C(CC(=O)c2ccc(O)cc2)S(=O)(=O)c2ccc(C)cc2)cc1 (centres undefined) | > 100 µM (inactive) |
| O=C(O)CC1(CC(=O)NCc2ccc(-c3cccs3)cc2)CCCCC1 | > 100 µM (inactive) |
| CN(CCOc1ccccc1)S(=O)(=O)c1ccccc1C#N | > 100 µM (inactive) |
| CCN(c1ccccc1)S(=O)(=O)c1ccc(OC)c(OC)c1 | > 100 µM (inactive) |
| CCN(C(=O)COC(=O)c1cn(-c2ccccc2)nc1-c1ccccc1)C1CCS(=O)(=O)C1 (centres undefined) | > 100 µM (inactive) |
| COc1ccc(CCNc2nc(-c3ccncc3)cs2)cc1OC | > 100 µM (inactive) |
| CCOc1ccccc1N1CCN(Cc2cn[nH]c2-c2ccc(F)cc2)CC1 | > 100 µM (inactive) |
| O=C(NCc1ccccc1)c1nc(S(=O)(=O)Cc2ccccc2)ncc1Cl | > 100 µM (inactive) |
| Cc1cc(NC(=O)CS(=O)(=O)c2cn(Cc3cccc(Br)c3)c3ccccc23)no1 | > 100 µM (inactive) |
| CCOc1ccccc1/C=C/c1cc(C(=O)O)c2ccccc2n1 | > 100 µM (inactive) |
| COC(=O)COc1ccc(S(=O)(=O)N2CCc3ccccc3C2)cc1C | > 100 µM (inactive) |
| COc1ccccc1-c1ccc(SCc2cccc(F)c2)nn1 | > 100 µM (inactive) |
| CC(C)(CC(=O)O)CC(=O)NCc1c(Cl)cccc1Sc1ccc(Cl)cc1 | > 100 µM (inactive) |
| O=C(c1ccc(-n2cccn2)cc1)N1CCc2ccccc2C1 | > 100 µM (inactive) |
| CCOc1ccc2sc(NS(=O)(=O)c3ccc(N)cc3)nc2c1 | > 100 µM (inactive) |
| Cc1ccc(S(=O)(=O)NCc2c(-c3ccccc3)noc2C)cc1 | > 100 µM (inactive) |

| SMILES | AC50 |
| --- | --- |
| CC1=Nc2cc(C(=O)NCC3CCCO3)ccc2Sc2ccc(Br)cc21 (centres undefined) | > 100 µM (inactive) |
| Cc1ccc(NC(=O)CCCSc2ccccc2)cc1S(=O)(=O)N1CCOCC1 | > 100 µM (inactive) |
| COc1ccc(Nc2nc(N)c([N+](=O)[O-])c(N3CCCC3)n2)cc1 | > 100 µM (inactive) |
| CCc1nnc(NS(=O)(=O)c2ccc(NC(=O)c3cccc4ccccc34)cc2)s1 | > 100 µM (inactive) |
| Cc1csc(SCc2nc3scc(-c4ccccc4)c3c(=O)[nH]2)n1 | > 100 µM (inactive) |
| O=S(=O)(c1ccccc1)N1C[C@H]2[C@@H](c3ccccc31)[C@@H](CO)N2Cc1ccccc1 | > 100 µM (inactive) |
| O=C(Cc1coc2cc(O)ccc12)N1CCN(S(=O)(=O)c2ccc(Br)cc2)CC1 | > 100 µM (inactive) |
| CC1(C(=O)NS(=O)(=O)c2cccc(C#N)c2)CCN1C(=O)C1(c2ccc(Cl)cc2)CCC1 (centres undefined) | > 100 µM (inactive) |
| NC(=O)c1ccsc1NC(=O)COC(=O)CCOc1ccccc1 | > 100 µM (inactive) |
| Clc1ccc(-c2nc3ccc(Br)cn3c2Cc2ccsc2)cc1 | > 100 µM (inactive) |
| CC1(C(=O)NS(=O)(=O)c2cccc(Cl)c2)CCN1C(=O)C1(c2ccc(Cl)cc2)CCC1 (centres undefined) | > 100 µM (inactive) |
| O=C(O)CCN(Cc1ccccc1)S(=O)(=O)c1ccc(Cl)cc1F | > 100 µM (inactive) |
| CCOc1ccc(S(=O)(=O)N(C)c2ccc(OCC(=O)Nc3ccc4[nH]c(=O)[nH]c4c3)cc2)cc1 | > 100 µM (inactive) |
| COc1ccc(CNC(=O)Cc2cn(C)c3ccccc23)c(OC)c1 | > 100 µM (inactive) |
| O=S(=O)(c1ccccc1)N1C[C@@H]2[C@H](c3ccccc31)[C@H](CO)N2Cc1ccccc1 | > 100 µM (inactive) |
| CSc1ccccc1NC(=O)c1ccccc1N(Cc1ccccc1)S(C)(=O)=O | > 100 µM (inactive) |
| CCCCC(=O)N1CCN(c2nc3ccc(Br)cc3s2)CC1 | > 100 µM (inactive) |
| CC(Nc1ncnc2ccccc12)c1ccccc1 (centres undefined) | > 100 µM (inactive) |
| COc1ccc(NC(=O)CN(c2ccccc2)S(=O)(=O)c2ccccc2)c(OC)c1 | > 100 µM (inactive) |
| Cc1cc(C(=O)COC(=O)c2ccc(Br)o2)c(C)n1C | > 100 µM (inactive) |
| CCOc1ccc(C(C)=O)cc1CN1C(=O)NC2(CCCCCCC2)C1=O | > 100 µM (inactive) |
| O=C(CCc1nc2ccccc2s1)OCC(=O)c1ccc[nH]1 | > 100 µM (inactive) |
| CCN(CC)S(=O)(=O)c1ccc(O)c(C(=O)OCC(=O)NC23CC4CC(CC(C4)C2)C3)c1 | > 100 µM (inactive) |
| COc1cc(SC)ccc1C(=O)N1CCN(c2ccccc2F)CC1 | > 100 µM (inactive) |

| SMILES | AC50 |
| --- | --- |
| O=C(c1cc(C(=O)N2CCOCC2)c2nc3ccccc3n2c1)c1cc(Cl)cc(Cl)c1O | > 100 µM (inactive) |
| NS(=O)(=O)c1cccc(NC(=O)CSc2nnc(-c3ccccc3F)n2C2CC2)c1 | > 100 µM (inactive) |
| COc1ccc(-c2csc(NC(=O)CC(NC(C)=O)c3ccccc3)n2)cc1OC (centres undefined) | > 100 µM (inactive) |
| O=C(CCCSc1nc2ccccc2s1)NCc1ccc2c(c1)OCO2 | > 100 µM (inactive) |
| O=C(CSc1nc2scc(-c3ccccc3)c2c(=O)[nH]1)N1CCCCC1 | > 100 µM (inactive) |
| Nc1cc([N+](=O)[O-])ccc1Nc1ccc(O)cc1 | > 100 µM (inactive) |
| O=C(Nc1cccc(-c2cn3ccccc3n2)c1)c1ccccc1 | > 100 µM (inactive) |
| COc1ccc(NC(=O)CN(c2ccccc2OC)S(=O)(=O)c2cccs2)cc1Cl | > 100 µM (inactive) |
| Cc1cnc(NC(=O)Cc2c[nH]c3ccccc23)s1 | > 100 µM (inactive) |
| Cc1c(C(=O)NCCSCc2cccc(C(F)(F)F)c2)cnn1-c1ccc(F)cc1 | > 100 µM (inactive) |
| O=C(Cn1c2[n+](c3ccc(C(F)(F)F)cc31)CCCCC2)c1ccc2c(c1)OCCO2 | > 100 µM (inactive) |
| N#Cc1ccsc1NC(=O)CSc1nnnn1-c1ccc(O)cc1 | > 100 µM (inactive) |
| COc1ccc2[nH]cc(CCNC(=O)C3CC(=O)N(c4ccc(Cl)cc4)C3)c2c1 (centres undefined) | > 100 µM (inactive) |
| CSc1cccc(NC(=O)CSc2nc3ccccc3o2)c1 | > 100 µM (inactive) |
| COc1ccc(C(=O)NCCc2ccccn2)cc1S(=O)(=O)Nc1ccc(Br)cc1 | > 100 µM (inactive) |
| CCOC(=O)c1c(CS(=O)(=O)c2ccccc2)n(C)c2cc(Br)c(O)cc12 | > 100 µM (inactive) |
| Cc1ccc(C2NC(=O)c3[nH]nc(-c4ccccc4)c32)cc1 (centres undefined) | > 100 µM (inactive) |
| COC(=O)COc1ccc(Cl)cc1C1Nc2ccccc2C(=O)N1c1ccc(OC)cc1 (centres undefined) | > 100 µM (inactive) |
| Cc1ccsc1C(=O)OCC(=O)N1CCc2ccccc2C1 | > 100 µM (inactive) |
| Cc1n[nH]c(C)c1Sc1ccccc1[N+](=O)[O-] | > 100 µM (inactive) |
| COc1ccc(C(=O)Cn2c(C)nc([N+](=O)[O-])c2Br)cc1 | > 100 µM (inactive) |
| O=C(COC(=O)c1n[nH]c2ccccc12)Nc1cccc(S(=O)(=O)N2CCOCC2)c1 | > 100 µM (inactive) |
| Cc1ccccc1OCC(O)Cn1c(NCc2ccco2)nc2c1c(=O)n(C)c(=O)n2C (centres undefined) | > 100 µM (inactive) |
| O=C(NCc1nc2ccccc2[nH]1)c1ccc(S(=O)(=O)N2CCCC2)cc1 | > 100 µM (inactive) |

| SMILES | AC50 |
| --- | --- |
| COC(=O)c1c(-c2ccc(OC)cc2)sc2cc(OC)c(OC)cc12 | > 100 µM (inactive) |
| O=C(O)c1ccc2c(c1)N(Cc1ccc(F)cc1)C(=O)c1ccccc1S2 | > 100 µM (inactive) |
| O=C(CSc1nc(C2CCCCC2)nc2ccccc12)N1CCCC1 | > 100 µM (inactive) |
| O=C(Nc1ccc(S(=O)(=O)NC2=NCCCCC2)cc1)c1ccc([N+](=O)[O-])s1 | > 100 µM (inactive) |
| O=S(=O)(NC1c2cccc3cccc(c23)C1Sc1ncccn1)c1ccccc1 (centres undefined) | > 100 µM (inactive) |
| COc1cc2c(cc1OC)C1(C)N(CC2)C(C(C)=O)=NN1c1ccc(Cl)cc1 (centres undefined) | > 100 µM (inactive) |
| COc1ccc(-c2nnn(CC(=O)N3CCN(c4ccccc4OC)CC3)n2)cc1OC | > 100 µM (inactive) |
| COc1ccc(-c2noc(=O)n2Cc2ccccc2Cl)cc1 | > 100 µM (inactive) |
| O=C(Nc1ccc2nc3n(c(=O)c2c1)CCCCC3)c1c(F)ccc([N+](=O)[O-])c1F | > 100 µM (inactive) |
| CCCCNC(=O)C[C@@H]1C[C@@]2(C(=O)OC)CCCCC=C2N(Cc2ccccc2)C1=O | > 100 µM (inactive) |
| COc1ccc2nc(SCC(=O)Nc3ccccc3OC)[nH]c2c1 | > 100 µM (inactive) |
| C=CCn1c(-c2cc3cccc(OC)c3o2)n[nH]c1=S | > 100 µM (inactive) |
| CCOC(=O)c1nc(S(C)(=O)=O)ncc1Cl | > 100 µM (inactive) |
| CCOc1ccc(NC(=O)CN(C)CC(=O)Nc2ccc(Br)cc2F)cc1OCC | > 100 µM (inactive) |
| COc1ccc(NC(=O)Nc2cccc3c2O[C@@H](CN(C)S(=O)(=O)c2ccc(Cl)cc2)[C@H](C)CN([C@H](C)CO)C3=O)cc1 | > 100 µM (inactive) |
| CC(=O)Nc1ccc(Nc2nc(C)c([N+](=O)[O-])c(N(C)c3ccccc3)n2)cc1 | > 100 µM (inactive) |
| COc1ccc(C(=O)Nc2ccc3oc(Cc4ccc(Cl)cc4)nc3c2)cc1OC | > 100 µM (inactive) |
| Cc1oc(-c2ccc(-c3ccccc3)cc2)nc1CN(C)C1CCOC1 (centres undefined) | > 100 µM (inactive) |
| N#Cc1nc(Cc2ccccc2)oc1N1CCCC1 | > 100 µM (inactive) |
| Cc1cc(OCCCCOc2ccc(S(N)(=O)=O)c(C)c2)ccc1S(N)(=O)=O | > 100 µM (inactive) |
| COc1ccc2nc(SCC(=O)Nc3ccccc3)[nH]c2c1 | > 100 µM (inactive) |
| O=[N+]([O-])c1cccnc1N1CCN(c2ccc(F)cc2)CC1 | > 100 µM (inactive) |
